Consider one compound from US20130237496A1, “ACTIVE INGREDIENT OBTAINED FROM CICHORIUM INTYBUS FOR ACTING ON THE BARRIER FUNCTION OF THE SKIN THAT IS SIMILAR TO THAT OF VITAMIN D” (SOCIETE INDUSTRIELLE LIMOUSINE D'APPLICATION BIOLOGIQUE, priority 2012, published 2013).

Holding throughout (type): cell-based
Assay [1] concerns Kallikrein 5 (KLK5 or SCTE). Put plainly: Expression of RNAm by quantitative PCR in normal human keratinocytes: KLK5. As to conditions: aged human keratinocytes; 10^−7M; 48 hours. From the text: (§1) The study consists in comparing the effect of these different fractions on the expression of the involucrin and the KLK5 by quantitative PCR on normal human keratinocytes, with the result obtained for the active ingredient according to the invention at 1%. The test protocol is the one described in Item II. […]
(§2) The study was done by quantitative PCR on normal human keratinocytes obtained from aged donors (age of greater than 60 years), according to the operating procedure described below. […]
(§3) On D4, the cells are recovered, and the total RNA are extracted. The RNA are reverse-transcripts, and the complementary DNA that are obtained are analyzed by quantitative PCR (quantitative polymerase chain reaction).
(§4) The quantification of the incorporation of fluorescence is measured continuously using a thermal cycler, and the relative quantification is carried out using software.

The next assay relates to Involucrin. As to the kind of experiment: Expression of RNAm by quantitative PCR in normal human keratinocytes: involucrin. As to conditions: aged human keratinocytes; 10^−7M; 48 hours.
From the text: as §1, §2, §3, §4

A further assay has as its system Cystatin E/M. As to the kind of experiment: Expression of RNAm by quantitative PCR in human keratinocytes of aged donors: cystatin E/M. As to conditions: 10^−7M, 48 hours.
From the text: (§5) The object of this study is to evaluate the effect of a Cichorium intybus root hydrolyzate comprising oligofructosans (Example 1) on its capacity to modulate the expression of the RNAm coding for epidermal differentiation proteins: • Kruppel-like factor 4 (KLF4): transcription factor involved in the terminal differentiation of keratinocytes, • Cytokeratin 1 (CK1): components of intermediate keratin filaments, • Involucrin: protein of the cornified envelope, • Cystatin E/M: Inhibitor of lysosomal protease cysteines that are involved in the differentiation of keratinocytes and desquamation. • Kallikrein 5 (KLK5 or SCTE): stratum corneum tryptic enzyme involved in desquamation.
(§6) The study was done by quantitative PCR on normal human keratinocytes obtained from aged donors (age of greater than 60 years), according to the operating procedure described below.
(§7) On D0, the human keratinocytes of aged donors are inoculated and incubated at 37° C.
(§8) The cells are then incubated for 48 hours at 37° C.
as §3, §4

Assay [2] relates to Aged reconstructed epidermis. As to the kind of experiment: Thickness of reconstructed epidermis from aged human keratinocytes (HE coloring). From the text:
(§9) The object of this study is to evaluate the capacity of a Cichorium intybus root hydrolyzate comprising oligofructosans to promote the construction of a stratified and functional epidermis starting from aged human keratinocytes obtained by successive replications. First, the young human keratinocytes (passage 1: […] Next, the reconstructed epidermis (RE) is obtained after the young or aged human keratinocytes are cultivated. On D12 and D19, the RE are recovered, fixed, dehydrated and included in paraffin. Sections (4 μm) are then made using a microtome. Next, an HE coloring, and then an immunohistological marking of the filaggrin, terminal differentiation marker, are carried out. The display is produced on a microscope coupled with an image analysis system: • The thickness of the epidermis (living cell layers) is measured on the histological sections after the HE coloring, • The synthesis of the filaggrin is proportional to the intensity of the fluorescence (green color) that is present in the reconstructed epidermis.

The test system of another assay is filaggrin. As to the kind of experiment: Synthesis of filaggrin in reconstructed epidermis from aged human keratinocytes (immunohistological marking).
From the text: as §9

A further assay deals with Cytokeratin 1 (CK1). As to the kind of experiment: Expression of RNAm by quantitative PCR in human keratinocytes of aged donors: cytokeratin 1. As to conditions: 10^−7M, 48 hours.
From the text: as §5, §6, §7, §8, §3, §4

The subject of assay [3] is Kruppel-like factor 4 (KLF4). As to the kind of experiment: Expression of RNAm by quantitative PCR in human keratinocytes of aged donors: KLF4. The note with it: 10^−7M, 48 hours.
From the text: as §5, §6, §7, §8, §3, §4

Turning to `C=C1/C(=C\C=C2/CCC[C@]3(C)[C@@H]([C@H](C)CCCC(C)(C)O)CC[C@@H]23)C[C@@H](O)C[C@@H]1O` [Calcitriol, calcitriol], the “RNAm Level/Control (%) KLK5” value in assay [1] was “+26%”. Also, the “RNAm Level/Control (%) Involucrin” value with Involucrin is listed as “+42%”. In addition, the “RNAm Level/Control (%) Cystatin E/M” value with Cystatin E/M was “+65%”. The “Thickness of the Epidermis (μm)” value in assay [2] (D12, 10^−8M) is reported as 37.8 μm; in assay [2] (D19, 10^−8M) it was 58.6 (FIG. 1c) μm. In addition, the “Synthesis of Filaggrin (×10^4 UA)” value in the assay on filaggrin (D12, 10^−8M) is listed as 116 ×10^4 UA; in the assay on filaggrin (D19, 10^−8M), 795 (FIG. 2c) ×10^4 UA. Also, in the assay on Cytokeratin 1 (CK1), the “RNAm Level/Control (%) Cytokeratin 1” value is on record as 0%. For the same compound, in assay [3], the “RNAm Level/Control (%) KLF4” value is given as “+25%”.
